Columns and labels:
[1] = molecular target: T1, Beta-adrenergic receptor kinase 1 (Homo sapiens) (UniProt P25098); assay: Selectivity interaction (KinomeScan (DiscoverX)) EUB0001079a ADRBK1; settings: at 1 µM
T1 sequence (whole entry): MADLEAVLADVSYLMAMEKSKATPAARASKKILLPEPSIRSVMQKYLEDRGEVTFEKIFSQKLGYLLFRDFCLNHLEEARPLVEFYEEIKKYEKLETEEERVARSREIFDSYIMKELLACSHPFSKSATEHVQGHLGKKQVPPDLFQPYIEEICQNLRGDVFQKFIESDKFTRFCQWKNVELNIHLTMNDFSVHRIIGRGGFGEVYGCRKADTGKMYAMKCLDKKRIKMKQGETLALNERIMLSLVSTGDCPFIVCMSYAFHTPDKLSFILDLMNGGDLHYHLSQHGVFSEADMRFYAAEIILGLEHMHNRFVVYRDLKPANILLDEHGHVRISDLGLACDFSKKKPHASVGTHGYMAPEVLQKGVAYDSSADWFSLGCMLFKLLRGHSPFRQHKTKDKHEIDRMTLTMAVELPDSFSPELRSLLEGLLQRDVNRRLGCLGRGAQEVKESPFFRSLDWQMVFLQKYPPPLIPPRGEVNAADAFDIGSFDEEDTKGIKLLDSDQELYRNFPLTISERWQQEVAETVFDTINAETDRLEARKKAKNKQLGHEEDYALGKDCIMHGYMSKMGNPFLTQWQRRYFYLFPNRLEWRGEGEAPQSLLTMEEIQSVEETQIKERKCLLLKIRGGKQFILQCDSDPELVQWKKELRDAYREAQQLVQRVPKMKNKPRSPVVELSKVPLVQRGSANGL

[2] = molecular target: STE20-like serine/threonine-protein kinase (Homo sapiens, UniProt Q9H2G2); assay: Selectivity interaction (ActivX KiNativ screen (ex vivo kinase selectivity in human PBMCs)) EUB0001619a SLK; format: cell-based; settings: PBMC, at 1 µM
[3] = molecular target: Phosphatidylinositol 4-phosphate 5-kinase type-1 alpha (Homo sapiens) (UniProt Q99755); assay: Selectivity interaction (KinomeScan (DiscoverX)) EUB0001619a PIP5K1A; settings: at 1 µM
Phosphatidylinositol 4-phosphate 5-kinase type-1 alpha (Homo sapiens), sequence (Q99755 whole entry): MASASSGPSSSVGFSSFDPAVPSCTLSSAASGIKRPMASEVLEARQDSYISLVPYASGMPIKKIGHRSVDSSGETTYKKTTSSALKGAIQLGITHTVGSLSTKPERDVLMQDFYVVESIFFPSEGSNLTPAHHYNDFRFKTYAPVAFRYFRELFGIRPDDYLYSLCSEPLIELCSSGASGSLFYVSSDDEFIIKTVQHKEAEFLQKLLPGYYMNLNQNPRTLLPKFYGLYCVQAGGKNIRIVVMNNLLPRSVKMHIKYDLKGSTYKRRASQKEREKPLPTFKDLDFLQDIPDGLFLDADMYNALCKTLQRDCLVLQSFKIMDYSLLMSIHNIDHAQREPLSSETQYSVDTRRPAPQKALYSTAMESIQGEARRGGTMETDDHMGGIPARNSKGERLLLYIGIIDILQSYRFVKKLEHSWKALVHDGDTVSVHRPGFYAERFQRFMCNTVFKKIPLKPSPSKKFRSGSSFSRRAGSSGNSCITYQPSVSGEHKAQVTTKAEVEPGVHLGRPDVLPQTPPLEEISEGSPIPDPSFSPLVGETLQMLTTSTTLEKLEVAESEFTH

[4] = molecular target: T2, Protein kinase C epsilon type (Homo sapiens) (UniProt Q02156); assay: Selectivity interaction (KinomeScan (DiscoverX)) EUB0000045b PRKCE
T2 sequence (whole entry): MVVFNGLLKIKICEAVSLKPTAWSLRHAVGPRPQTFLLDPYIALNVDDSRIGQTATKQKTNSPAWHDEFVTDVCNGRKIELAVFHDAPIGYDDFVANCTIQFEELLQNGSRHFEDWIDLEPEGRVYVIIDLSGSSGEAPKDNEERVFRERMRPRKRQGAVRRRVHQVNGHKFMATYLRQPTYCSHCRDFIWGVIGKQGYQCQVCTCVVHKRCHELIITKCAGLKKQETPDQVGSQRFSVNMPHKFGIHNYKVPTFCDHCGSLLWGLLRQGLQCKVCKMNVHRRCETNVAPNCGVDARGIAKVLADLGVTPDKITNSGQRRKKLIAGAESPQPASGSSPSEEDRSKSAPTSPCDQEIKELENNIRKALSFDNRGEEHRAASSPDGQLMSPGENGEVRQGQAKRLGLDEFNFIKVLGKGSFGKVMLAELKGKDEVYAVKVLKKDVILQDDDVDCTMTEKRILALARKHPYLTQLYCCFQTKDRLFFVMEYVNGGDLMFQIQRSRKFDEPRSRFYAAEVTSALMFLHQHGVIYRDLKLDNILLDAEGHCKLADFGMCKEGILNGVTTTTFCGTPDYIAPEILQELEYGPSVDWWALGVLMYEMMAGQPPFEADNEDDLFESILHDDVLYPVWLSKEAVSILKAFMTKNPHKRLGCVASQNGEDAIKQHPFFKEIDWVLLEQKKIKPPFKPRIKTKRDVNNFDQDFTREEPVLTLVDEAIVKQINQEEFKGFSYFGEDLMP

[5] = molecular target: T3, Serine/threonine-protein kinase 26 (Homo sapiens, UniProt Q9P289); assay: Selectivity interaction (Upstate Kinase Profiler service (Millipore)) EUB0000056c STK26; settings: at 1 µM
T3 sequence (Q9P289 2-416 limits assumed): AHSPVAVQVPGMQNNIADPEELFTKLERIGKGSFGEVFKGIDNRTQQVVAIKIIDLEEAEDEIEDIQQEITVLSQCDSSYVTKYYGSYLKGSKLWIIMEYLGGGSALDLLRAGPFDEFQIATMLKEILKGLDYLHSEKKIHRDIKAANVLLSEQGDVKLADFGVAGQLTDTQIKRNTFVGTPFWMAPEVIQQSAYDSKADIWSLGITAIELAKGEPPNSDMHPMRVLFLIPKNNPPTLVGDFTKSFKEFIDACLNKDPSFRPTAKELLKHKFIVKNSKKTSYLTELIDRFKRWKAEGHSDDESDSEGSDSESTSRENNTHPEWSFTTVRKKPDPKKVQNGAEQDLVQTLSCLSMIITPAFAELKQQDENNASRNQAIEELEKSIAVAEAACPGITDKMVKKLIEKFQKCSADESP

[6] = molecular target: T3, Serine/threonine-protein kinase 26; assay: Selectivity interaction (Kinase panel (KiNativ target engagement assay in Jurkat cells)) EUB0001635a STK26; format: cell-based; settings: Selectivity number of off-targets 0.0, Selectivity number of targets 233.0, Source Knowledge https://www.sciencedirect.com/science/article/pii/S2451945619300674?via%3Dihub, at 1 µM
[7] = molecular target: Ribosomal protein S6 kinase alpha-6 (Homo sapiens, UniProt Q9UK32); settings: at 10 µM
Ribosomal protein S6 kinase alpha-6, sequence (Q9UK32 whole entry): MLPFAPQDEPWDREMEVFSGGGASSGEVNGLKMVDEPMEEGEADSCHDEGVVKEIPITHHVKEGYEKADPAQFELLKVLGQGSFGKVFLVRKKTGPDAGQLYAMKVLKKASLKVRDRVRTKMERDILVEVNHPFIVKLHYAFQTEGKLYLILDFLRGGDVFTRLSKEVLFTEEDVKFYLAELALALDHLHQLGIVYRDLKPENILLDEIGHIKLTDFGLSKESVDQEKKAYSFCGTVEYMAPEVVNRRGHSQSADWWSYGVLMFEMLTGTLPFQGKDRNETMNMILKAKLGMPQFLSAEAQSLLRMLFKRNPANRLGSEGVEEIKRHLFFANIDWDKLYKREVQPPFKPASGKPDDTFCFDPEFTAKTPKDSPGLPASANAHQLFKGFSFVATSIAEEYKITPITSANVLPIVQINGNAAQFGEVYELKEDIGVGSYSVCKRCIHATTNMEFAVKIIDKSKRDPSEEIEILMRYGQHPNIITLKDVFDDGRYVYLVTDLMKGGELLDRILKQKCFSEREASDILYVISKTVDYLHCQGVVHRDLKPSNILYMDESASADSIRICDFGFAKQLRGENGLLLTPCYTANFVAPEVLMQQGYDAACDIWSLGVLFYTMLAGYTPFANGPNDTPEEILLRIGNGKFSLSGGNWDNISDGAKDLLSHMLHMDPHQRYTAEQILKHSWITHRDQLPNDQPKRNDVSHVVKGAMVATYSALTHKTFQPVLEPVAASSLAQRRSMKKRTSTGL

[8] = molecular target: Serine/threonine-protein kinase 10 (Homo sapiens) (UniProt O94804); assay: Selectivity interaction (ActivX KiNativ screen (kinase selectivity in THP-1 cell lysates)) EUB0000639a STK10; format: subcellular; settings: lysate, at 0.2 µM
Serine/threonine-protein kinase 10 (Homo sapiens), sequence (O94804 whole entry, looked up): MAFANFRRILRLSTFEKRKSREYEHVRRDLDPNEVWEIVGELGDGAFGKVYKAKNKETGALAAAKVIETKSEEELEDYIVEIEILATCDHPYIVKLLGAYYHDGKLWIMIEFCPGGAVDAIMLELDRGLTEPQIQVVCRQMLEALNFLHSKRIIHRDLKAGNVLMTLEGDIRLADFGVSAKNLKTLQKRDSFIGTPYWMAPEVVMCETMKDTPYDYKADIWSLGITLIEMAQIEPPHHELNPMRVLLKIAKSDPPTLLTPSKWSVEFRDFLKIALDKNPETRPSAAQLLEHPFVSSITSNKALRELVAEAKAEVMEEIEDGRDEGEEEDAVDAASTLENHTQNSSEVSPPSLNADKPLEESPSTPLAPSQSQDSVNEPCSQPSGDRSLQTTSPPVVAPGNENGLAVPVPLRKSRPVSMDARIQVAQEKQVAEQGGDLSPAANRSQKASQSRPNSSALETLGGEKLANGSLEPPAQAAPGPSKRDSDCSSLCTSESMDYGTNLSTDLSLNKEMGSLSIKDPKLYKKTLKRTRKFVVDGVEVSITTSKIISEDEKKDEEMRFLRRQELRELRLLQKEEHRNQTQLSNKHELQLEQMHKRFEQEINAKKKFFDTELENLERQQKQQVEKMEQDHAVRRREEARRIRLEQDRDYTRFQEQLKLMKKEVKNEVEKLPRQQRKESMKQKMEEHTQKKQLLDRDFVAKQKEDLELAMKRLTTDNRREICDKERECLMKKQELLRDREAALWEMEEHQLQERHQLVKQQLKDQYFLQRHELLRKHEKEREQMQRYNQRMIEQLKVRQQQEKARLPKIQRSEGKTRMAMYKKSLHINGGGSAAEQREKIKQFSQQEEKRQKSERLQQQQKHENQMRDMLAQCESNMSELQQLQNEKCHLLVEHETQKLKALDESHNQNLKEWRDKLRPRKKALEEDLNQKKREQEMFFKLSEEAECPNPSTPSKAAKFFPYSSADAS

[9] = molecular target: Serine/threonine-protein kinase PLK1 (Homo sapiens, UniProt P53350); assay: Selectivity interaction (ActivX KiNativ screen (kinase selectivity in THP-1 cell lysates)) EUB0000639a PLK1; format: subcellular; settings: lysate
Serine/threonine-protein kinase PLK1, sequence (P53350 whole entry): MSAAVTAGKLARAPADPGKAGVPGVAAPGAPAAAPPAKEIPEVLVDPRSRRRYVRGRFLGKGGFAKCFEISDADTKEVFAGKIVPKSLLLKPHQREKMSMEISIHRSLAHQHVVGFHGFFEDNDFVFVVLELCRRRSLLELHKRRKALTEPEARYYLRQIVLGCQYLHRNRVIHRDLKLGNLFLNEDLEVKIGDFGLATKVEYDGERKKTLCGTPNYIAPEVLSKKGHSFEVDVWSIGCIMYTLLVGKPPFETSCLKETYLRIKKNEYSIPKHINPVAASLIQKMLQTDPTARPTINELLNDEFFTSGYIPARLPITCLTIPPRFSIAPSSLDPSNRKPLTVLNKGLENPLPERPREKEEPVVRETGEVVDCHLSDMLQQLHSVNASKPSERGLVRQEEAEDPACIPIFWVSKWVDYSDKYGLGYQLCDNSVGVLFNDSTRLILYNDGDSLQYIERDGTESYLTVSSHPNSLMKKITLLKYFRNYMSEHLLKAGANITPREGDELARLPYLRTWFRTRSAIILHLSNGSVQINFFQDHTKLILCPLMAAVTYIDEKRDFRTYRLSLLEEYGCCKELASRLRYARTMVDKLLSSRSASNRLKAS

[10] = molecular target: Sigma non-opioid intracellular receptor 1 (Homo sapiens) (UniProt Q99720); assay: Selectivity interaction (GPCR panel (PDSP screen)) EUB0000311b SIGMAR1; settings: at 10 µM
Sigma non-opioid intracellular receptor 1 (Homo sapiens), sequence (Q99720 whole entry): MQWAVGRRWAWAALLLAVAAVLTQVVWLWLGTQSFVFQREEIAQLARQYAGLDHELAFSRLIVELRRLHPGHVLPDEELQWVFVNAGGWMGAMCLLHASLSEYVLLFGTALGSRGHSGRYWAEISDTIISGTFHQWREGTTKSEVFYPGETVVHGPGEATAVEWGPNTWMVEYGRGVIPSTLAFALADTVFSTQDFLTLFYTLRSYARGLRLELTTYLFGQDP

[11] = molecular target: Misshapen-like kinase 1 (Homo sapiens, UniProt Q8N4C8); assay: Selectivity interaction (Kinase panel (Z-LYTE Assay)) EUB0001632a MINK1; settings: at 10 µM
[12] = molecular target: Protein-tyrosine kinase 2-beta (Homo sapiens) (UniProt Q14289); assay: Selectivity interaction (Kinase panel (Z-LYTE Assay)) EUB0001632a PTK2B; settings: at 10 µM
Protein-tyrosine kinase 2-beta (Homo sapiens), sequence (Q14289 whole entry, looked up): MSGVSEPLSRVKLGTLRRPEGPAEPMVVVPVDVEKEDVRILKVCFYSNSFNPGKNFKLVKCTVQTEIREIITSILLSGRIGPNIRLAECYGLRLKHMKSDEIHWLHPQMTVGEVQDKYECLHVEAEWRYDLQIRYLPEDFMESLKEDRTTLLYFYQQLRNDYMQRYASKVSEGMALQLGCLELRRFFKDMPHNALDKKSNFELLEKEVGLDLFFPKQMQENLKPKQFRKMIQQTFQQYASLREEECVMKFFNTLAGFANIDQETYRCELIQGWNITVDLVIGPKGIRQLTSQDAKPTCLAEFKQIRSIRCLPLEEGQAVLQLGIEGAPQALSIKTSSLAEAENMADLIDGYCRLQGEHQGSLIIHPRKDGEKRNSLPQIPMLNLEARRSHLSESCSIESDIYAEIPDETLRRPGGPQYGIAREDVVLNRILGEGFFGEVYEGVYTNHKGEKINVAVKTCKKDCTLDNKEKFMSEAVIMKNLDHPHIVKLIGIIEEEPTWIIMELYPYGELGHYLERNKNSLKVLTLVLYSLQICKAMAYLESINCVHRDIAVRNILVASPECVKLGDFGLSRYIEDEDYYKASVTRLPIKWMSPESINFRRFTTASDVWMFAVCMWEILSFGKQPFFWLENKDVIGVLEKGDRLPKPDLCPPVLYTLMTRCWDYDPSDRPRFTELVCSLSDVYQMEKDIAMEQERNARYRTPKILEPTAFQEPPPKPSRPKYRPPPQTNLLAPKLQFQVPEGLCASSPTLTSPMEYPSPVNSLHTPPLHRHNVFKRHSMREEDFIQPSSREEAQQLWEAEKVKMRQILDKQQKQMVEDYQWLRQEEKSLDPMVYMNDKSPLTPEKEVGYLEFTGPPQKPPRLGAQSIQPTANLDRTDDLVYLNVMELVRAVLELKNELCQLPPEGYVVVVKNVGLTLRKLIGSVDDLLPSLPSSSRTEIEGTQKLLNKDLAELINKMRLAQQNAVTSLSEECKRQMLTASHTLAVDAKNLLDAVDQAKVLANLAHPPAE

[13] = molecular target: RAC-gamma serine/threonine-protein kinase (Homo sapiens, UniProt Q9Y243); assay: Selectivity interaction (Kinase screening (Nanosyn)) EUB0000604a AKT3
RAC-gamma serine/threonine-protein kinase, sequence (Q9Y243 whole entry): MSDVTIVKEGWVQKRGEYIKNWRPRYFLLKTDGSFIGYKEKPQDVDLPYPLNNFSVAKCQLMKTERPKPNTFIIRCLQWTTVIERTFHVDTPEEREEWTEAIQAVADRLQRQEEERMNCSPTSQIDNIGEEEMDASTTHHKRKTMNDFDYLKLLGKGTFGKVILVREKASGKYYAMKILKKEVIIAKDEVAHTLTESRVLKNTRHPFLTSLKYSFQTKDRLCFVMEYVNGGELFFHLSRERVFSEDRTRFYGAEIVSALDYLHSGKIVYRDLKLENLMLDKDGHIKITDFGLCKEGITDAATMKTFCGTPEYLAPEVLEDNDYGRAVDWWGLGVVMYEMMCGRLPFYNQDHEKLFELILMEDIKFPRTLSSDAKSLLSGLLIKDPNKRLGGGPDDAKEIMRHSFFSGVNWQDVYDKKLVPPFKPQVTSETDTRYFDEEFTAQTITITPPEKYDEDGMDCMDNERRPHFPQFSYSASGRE

[14] = molecular target: Rho-associated protein kinase 2 (Homo sapiens, UniProt O75116); assay: Selectivity interaction (KinomeScan (DiscoverX)) EUB0000695a ROCK2; settings: at 100 nM

Nc1cnc(N2CCc3cc(S(=O)(=O)Nc4c(F)cc(Cl)cc4F)cc(N4CCCC4=O)c32)nc1 [TP-020n]
% of control [1]: 100%

N#Cc1cccc(-c2c[nH]c3ncnc(N4CCOCC4)c23)c1
% of inhibition [2]: 61%
% of control [3]: 20%

C=CC(=O)Nc1cc(-n2c(=O)ccc3cnc4ccc(-c5ccc(NS(C)(=O)=O)cc5)cc4c32)ccc1C
% of control ([4]; at 1 µM): 100%
% of control ([4]; at 10 µM): 75%

Cc1ccc(-c2ccc3c(ccc4sc5c(c43)NC[C@@H](C)NC5=O)n2)cn1
% of inhibition [5]: 15%

C=CC(=O)Nc1ccc(C(=O)Nc2[nH]nc3c2CN(C(=O)N[C@H](CN(C)C)c2ccccc2)C3(C)C)cc1
% of engagement [6]: 26%

Cc1cc([C@@H](C)Nc2ccccc2C(=O)O)c2nc(N3CCOCC3)cc(=O)n2c1 [AZD-6482]
% of control [7]: 71%

CC[C@@H]1[C@H](F)C(=O)N[C@@H]1COc1nccc2cc(C(N)=O)c(OC)cc12 [ZIMLOVISERTIB]
% of inhibition [8]: -43.2%
% of inhibition ([9]; at 0.01 µM): 7.9%
% of inhibition ([9]; at 0.04 µM): 2%
% of inhibition ([9]; at 0.2 µM): -17.6%
% of inhibition ([9]; at 1 µM): -0.9%
% of inhibition ([9]; at 5 µM): -0.9%

CCc1ccccc1C(=O)Nc1n[nH]c2c(C)c(F)c(C3C(C#N)=C(C)N(C)C(C)=C3C#N)cc12 [BAY-3827]
% of inhibition [10]: 30.5%

Cn1cc(-n2cnc3c(NCc4nc5cc(Cl)c(Cl)cc5[nH]4)nc(N4CCOCC4)nc32)cn1
% of control [11]: -3.28%
% of control [12]: 6.24%

Cc1cnc(Nc2ccc(F)cc2Cl)nc1-c1c[nH]c(C(=O)N[C@H](CO)c2cccc(Cl)c2)c1
% of inhibition [13]: 0%

Cc1cc(F)c(C(=O)Nc2cccc(-c3nncn3C(C)C)n2)cc1-n1cnc(C2CC2)c1
% of control [14]: 81%
